The values below come from patent US7709458B2, “Method for inhibiting cancer cell proliferation or increasing cancer cell apoptosis” (priority 2004, dated 2010).

In general, pEC50 refers to the negative decadic logarithm of the EC50, by convention in mol/L.

Data set [1] concerns SH-SY5Y human neuroblastoma cells. In words: cells. Format: cell-based. As for the experimental part: Toxicity assays in human neuroblastoma cells. SH-SY5Y human neuroblastoma cells were cultured in DMEM/Ham's F-12 (1:1) media, supplemented with 10% FBS, penicillin (100 IU/ml), streptomycin (100 μg/ml), and L-glutamine (2 mM); the cell culture medium was replaced every two days. Cultures were maintained at 37° C. in 95% air-5% CO2 in a humidified incubator. A standard curve established the linear range for the assay of approximately 1000-7000 cells/well for a 96 well plate. All data reported were within this range. MTS assay concentration-response curves were performed as follows: 1800 cells/well were plated in 96 well plates. After 30 h, media was changed to include no toxicant (control) or toxicant at varying concentrations. The cells were then exposed for 48 h, the media was removed, and 100 μl minimum essential medium without phenol red and 20 μl MTS reagent were added. Cells were incubated, and 2 h later, plates were measured at 490 nm on an ELx 808 microplate reader (Bio-Tek Instruments, Winooski, Vt.). EC50 values were determined via nonlinear regression using Prism software (GraphPad, San Diego, Calif.).
Cytotoxicity tests in human neuroblastoma cells. The 3-(4,5-dimethylthiazol-2-yl)-5-(3-carboxymethoxyphenyl)-2-(4-sulfophenyl)-2H-tetrazolium (MTS) assay is a quantitative colorimetric assay for measurement of cellular proliferation, cytotoxicity and viability. MTS is converted to a formazan product only in living cells. MTS is similar to 3-(4,5-dimethylthiazol-2-yl)-2,5-diphenyltetrazolium bromide (MTT), which is widely used in cytotoxicity assays. The difference is that the formazan product for the MTS reagent is soluble in media while the MTT reagent is not.
To study the cytotoxicity of c-di-GMP in SH-SY5Y human neuroblastoma cells, increasing concentrations (0.0001-1000 μM) were added to the culture medium and cell viability was assessed by the MTS assay. […] Up to 100 μM, there was no effect on cell viability; at greater concentrations, a sharp decline in cell viability was observed.

A short description of data set [2]: Solubility and stability of c-di-GMP. Format: physicochemical.
Data set [3] concerns p44/42 (ERK1/2) mitogen-activated protein kinase (MAPK) cascade. Kind of data set: Acetylcholine- and EGF-induced activation of p44/42 MAPK signaling in H508 cells. It counts as cell-based, human.
The subject of data set [4] is H508 human colon cancer cells. In words: H508 colon cancer cell proliferation assay (sulforhodamine B colorimetric assay). It counts as cell-based. Conditions: 50 μM. On the technique in general: The SRB assay estimates cell density from bound dye.
In a further data set the test system is CD1 mice. In words: Lethality in CD1 mice. Conditions: 50 μl of 200 μM c-di-GMP, after 24 h.

Each structure is given as a SMILES string. pEC50: −log10 of the molar value. Read-outs that look alike come from different tables or passages of the source.

For `Nc1nc(=O)c2ncn([C@@H]3OC4COP(=O)(O)O[C@H]5[C@@H](O)[C@H](n6cnc7c(=O)nc(N)[nH]c76)O[C@@H]5COP(=O)(O)OC4C3O)c2[nH]1` (some centres unmarked) [c-di-GMP, Bis(3′-->5′)-cyclic diguanylic acid], the “cytotoxicity on human neuroblastoma cells” value in data set [1] is “no cytotoxicity”. For the same compound, the pEC50 in data set [1] (Homo sapiens, SH-SY5Y cells, 48 hr exposure, MTS assay, read-out: EC50 for decrease of cell viability) is 3.46. In addition, in data set [1] (human, 48 h), the “concentration with no effect on cell viability” value is “Up to 100 μM”. In addition, the stability entry in data set [2] (physiological conditions) is listed as “stable”. Moreover, the solubility result in data set [2] (water physiological saline) is reported as “soluble”. The figures for the “effect on EGF-induced activation (phosphorylation) of p44/42 MAPK” value in data set [3] and in data set [3] (listed as cyclic-di-GMP) were “did not alter” and “do not inhibit”, respectively. Besides, the “effect on acetylcholine-induced activation (phosphorylation) of p44/42 MAPK” value in data set [3] is given as “did not alter”; in data set [3] (listed as cyclic-di-GMP) it was “do not inhibit”. Also, the “apoptosis of H508 cells by microscopic examination” value in data set [4] was “not observed by microscopic examination”. The lethality result in the data set on CD1 mice is listed as “non-lethal”.
